Legend:
[1] = system: mice; settings: cited from earlier work
[2] = system: MAGL over FAAH; settings: cited from earlier work
[3] = system: Swiss mice; assay: Novel object recognition task
[4] = system: NMRI mice; assay: Y-maze test; format: in vivo; settings: 1.5 mg/kg, i.p.
[5] = biological target: T1, human recombinant MAGL (rhMAGL) (Homo sapiens, UniProt Q99685); assay: MAGL biochemical assay; settings: read-out: IC50, rhMAGL; 4-nitrophenylacetate substrate; N = 3
T1 sequence (Q99685 1-303): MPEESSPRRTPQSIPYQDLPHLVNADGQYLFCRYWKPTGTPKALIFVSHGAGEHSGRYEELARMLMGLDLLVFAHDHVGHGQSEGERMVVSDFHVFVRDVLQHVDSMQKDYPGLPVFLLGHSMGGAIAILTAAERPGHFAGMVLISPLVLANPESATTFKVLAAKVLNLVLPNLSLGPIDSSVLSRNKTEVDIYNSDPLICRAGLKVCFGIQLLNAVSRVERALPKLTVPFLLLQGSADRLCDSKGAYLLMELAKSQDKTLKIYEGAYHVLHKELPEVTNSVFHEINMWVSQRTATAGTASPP

[6] = system: OF1 mice; assay: Mouse tetrad experiments; settings: 15 mg/kg i.p.
[7] = system: OF1 mice; assay: Elevated plus-maze test; settings: diazepam 3 mg/kg p.o., 60 min before testing
[8] = system: OF1 mice; assay: Pentylenetetrazol; settings: diazepam 3 mg/kg i.p.
[9] = system: OF1 mice; assay: 6-Hz electroshock-induced seizures; format: in vivo; settings: levetiracetam 20 mg/kg i.p.
[10] = system: PBQ-induced writhing in OF1 mice; assay: Phenylbenzoquinone; format: in vivo; settings: combined with SAR127303 3 mg/kg p.o.
[11] = system: rat hippocampal slices; assay: [3H]ACh release evoked by electrical depolarisation in hippocampal slices; format: cell-based, Sprague-Dawley rats; settings: rimonabant 10^−7 mol/L

## O=C(Oc1ccc([N+](=O)[O-])cc1)N1CCC(C(O)(c2ccc3c(c2)OCO3)c2ccc3c(c2)OCO3)CC1 [JZL184]
[1]
  dose impairing MWM performance (dose that also inhibits FAAH): 40 mg/kg

## O=C(OC(C(F)(F)F)C(F)(F)F)N1CCC(C(O)(c2ccc3c(c2)OCO3)c2ccc3c(c2)OCO3)CC1 [KML29]
[2]
  selectivity for MAGL over FAAH and most other serine hydrolases: > 100 fold

## C[C@]12N[C@H](Cc3ccccc31)c1ccccc12 [MK-801]
[3]; 0.125 mg/kg
  novelty index ratio versus control vehicle: significantly reduced

## c1ccc(C2(N3CCCCC3)CCCCC2)cc1 [PCP]
[4]
  spontaneous alternation versus vehicle: significant reduction

## COc1ccc2c(C3COC(CCCNC(=O)OCC(N)=O)OC3)cccc2c1 (stereo not shown) [SSR411298]
[5]
  IC50: > 10 µM

## Cc1c(C(=O)c2cccc3ccccc23)c2cccc3c2n1[C@H](CN1CCOCC1)CO3 [WIN55,512-2]
[6]
  antinociception in the tail-flick test: significant antinociceptive
  catalepsy: cataleptic
  duration of antinociceptive, hypothermic and cataleptic effects: at least 4 hours
  hypothermia: hypothermic
  locomotor activity: decreased significantly

## CN1C(=O)CN=C(c2ccccc2)c2cc(Cl)ccc21 [diazepam]
[7]
  percentage of time in open arms: opposite effects
[8]
  protection in the PTZ test: full protection

## CC[C@@H](C(N)=O)N1CCCC1=O [levetiracetam]
[9]
  protection in the 6-Hz test: full protection

## Cc1c(C(=O)NN2CCCCC2)nn(-c2ccc(Cl)cc2Cl)c1-c1ccc(Cl)cc1 [rimonabant]
[10]
  blockade of the anti-writhing effects of SAR127303: blocked
[3]; rimonabant 3 mg/kg + SAR127303 1 mg/kg
  novelty index ratio when coadministered with SAR127303: significantly different from chance level
[11]
  reversal of the effect of 2-AG at 10^−8 mol/L on [3H]-ACh release: completely reversed
